In US6645983B1, “Pharmaceutical compositions comprising 4-quinolones for treating cancers” (Laboratoire L. Lafon, priority 1999, dated 2003):
Where two headings read alike, the source gives them in different places.

What was measured:
T24 = assay: MTT test, cytotoxic activity on non-clonogenic cell lines; assay type: cell-based; settings: Homo sapiens, T-24, 10^−5 M, mean value
Method in brief: (§1)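 Human bladder cancer lines were seeded at 20 000–50 000 cells/ml and, after 24 h, exposed to compounds at 10^−5 to 10^−10 M against a solvent control. Formazan was dissolved in DMSO and viability was read by spectrophotometric optical density.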

J82 = assay: as above; assay type: cell-based; settings: Homo sapiens, 10^−5 M, mean value
Method in brief: as §1

HCT-15 = assay: as above; assay type: cell-based; settings: Homo sapiens, mean value
Method in brief: (§2)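 Human cancer lines seeded at 20 000–50 000 cells/ml, allowed 24 h to attach, then exposed to compounds at 10^−5 to 10^−10 M versus solvent control.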

U-373MG = assay: as above; assay type: cell-based; settings: Homo sapiens, U373 MG, 10^−5 M, mean value
Method in brief: as §2

U-87MG = assay: as above; assay type: cell-based; settings: Homo sapiens, 10^−5 M, mean value
Method in brief: as §2

A549 = assay: as above; assay type: cell-based; settings: Homo sapiens, 10^−5 M, mean value
Method in brief: as §2

A-427 = assay: as above; assay type: cell-based; settings: Homo sapiens, 10^−5 M, mean value
Method in brief: as §2

PC-3 = assay: as above; assay type: cell-based; settings: Homo sapiens, 10^−5 M, mean value
Method in brief: as §2

MCF7 = assay: as above; assay type: cell-based; settings: Homo sapiens, 10^−5 M, mean value
Method in brief: as §2

T-47D = assay: as above; assay type: cell-based; settings: Homo sapiens, T47D, 10^−5 M, mean value
Method in brief: as §2

LoVo = assay: as above; assay type: cell-based; settings: Homo sapiens, 10^−5 M, mean value
Method in brief: as §2

SW1088 = assay: as above; assay type: cell-based; settings: Homo sapiens, 10^−5 M, mean value
Method in brief: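 Human astrocytoma SW1088 cells seeded, grown 24 h at 37° C, 5% CO2, then exposed to compounds at 10^−5 to 10^−10 M versus solvent control. Viability by MTT reduction: 3 h MTT incubation, formazan dissolved in DMSO and read by spectrophotometry.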

[1] = Determination of the maximum tolerated dose (MTD); settings: B6D2F1/Jico, mouse, in vivo, ip; single intraperitoneal administration, doses 2.5 to 160 mg/kg, survival over 14 days
Method in brief: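 Mice were 4- to 6-week-old B6D2F1/Jico. They received a single intraperitoneal dose of 2.5 to 160 mg/kg, and survival and body weight were followed for 14 days. MTD is given in mg/kg and is capped at 160 mg/kg by default.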

[2] = 72 hours incubation, MTT, read-out: mean optical density, expressed as percentage relative to the mean optical density under the control condition (100%)

melting point	SMILES	also measured
126 to 127 °C	COc1ccc(-c2cn(CCCC#N)c3c(OC)ccc(OC)c3c2=O)cc1 [CRL8421, 4-[5,8-Dimethoxy-3-(4-methoxyphenyl)-4-oxo-1,4-dihydro-1-quinolinyl]butanenitrile]	viability at 10 µM (T24; 72 hours of incubation, control condition = 100%, read-out: mean optical density as percentage of control, T24): 40.3%; viability at 10 µM (J82; 72 hours of incubation, control condition = 100%, read-out: mean optical density as percentage of control, J82): 47.1%; viability at 10 µM (HCT-15; 10^−5 M, 72 hours of incubation, control condition = 100%, read-out: mean optical density as percentage of control, HCT-16): 50%; viability at 10 µM (U-373MG; 72 hours of incubation, control condition = 100%, read-out: mean optical density as percentage of control, U-373MG): 81.7%; viability at 10 µM (U-87MG; U-87 MG, 72 hours of incubation, control condition = 100%, read-out: mean optical density as percentage of control, U-87MG): 29.9%; viability at 10 µM (A549; 72 hours of incubation, control condition = 100%, read-out: mean optical density as percentage of control, A549): 97.5%; viability at 10 µM (A-427; 72 hours of incubation, control condition = 100%, read-out: mean optical density as percentage of control, A-427): 33%; viability at 10 µM (PC-3; 72 hours of incubation, control condition = 100%, read-out: mean optical density as percentage of control, PC-3): 61.4%; viability at 10 µM (MCF7; 72 hours of incubation, control condition = 100%, read-out: mean optical density as percentage of control, MCF7): 49.5%; viability at 10 µM (T-47D; 72 hours of incubation, control condition = 100%, read-out: mean optical density as percentage of control, T-47D): 83.5%; viability at 10 µM (LoVo; 72 hours of incubation, control condition = 100%, read-out: mean optical density as percentage of control, LoVo): 60.8%; viability at 10 µM (SW1088; 72 hours of incubation, control condition = 100%, read-out: mean optical density as percentage of control, SW1088): 51%
245 to 246 °C	COc1ccc(-c2cn(CCc3nnn[nH]3)c3cc(OC)ccc3c2=O)cc1 [CRL8474, 7-Methoxy-3-(4-methoxyphenyl)-1-[2-(2H-1,2,3,4-tetrazol-5-yl)ethyl]-1,4-dihydro-4-quinolinone]	–
335 to 336 °C	COc1ccc(-c2c[nH]c3ccc(OC)cc3c2=O)cc1 [CRL8490, 6-Methoxy-3-(4-methoxyphenyl)-1,4-dihydro-4-quinolinone]	–
215 to 216 °C	COc1ccc(-c2c[nH]c3cccc(OC)c3c2=O)cc1 [CRL8491, 5-Methoxy-3-(4-methoxyphenyl)-1,4-dihydro-4-quinolinone]	–
236 to 237 °C	COc1ccc(-c2c[nH]c3cc(OC)cc(O)c3c2=O)cc1 [CRL8492, 5-Hydroxy-7-methoxy-3-(4-methoxyphenyl)-1,4-dihydro-4-quinolinone]	–
184 to 185 °C	COc1ccc(-c2cn(C)c3cc(OC)cc(OS(=O)(=O)C(F)(F)F)c3c2=O)cc1 [CRL8493, 7-Methoxy-3-(4-methoxyphenyl)-1-methyl-5-trifluoromethanesulfonate-1,4-dihydro-4-quinolinone]	–
130 to 131 °C	C=Cc1cc(OC)cc2c1c(=O)c(-c1ccc(OC)cc1)cn2C [CRL8494, 7-Methoxy-3-(4-methoxyphenyl)-1-methyl-5-vinyl-1,4-dihydro-4-quinolinone]	–
104 to 105 °C	C=Cc1ccc(OC)c2c1c(=O)c(-c1ccc(OC)cc1)cn2C [CRL8512, 8-Methoxy-3-(4-methoxyphenyl)-1-methyl-5-vinyl-1,4-dihydro-4-quinolinone]	–
126 to 127 °C	COc1ccc(-c2cn(CCO)c3c(OC)ccc(OC)c3c2=O)cc1 [CRL8515, 1-(2-Hydroxyethyl)-5,8-dimethoxy-3-(4-methoxyphenyl)-1,4-dihydro-4-quinolinone]	–
79 to 80 °C	COc1ccc(-c2cn(CCC#N)c3c(OC)ccc(OC)c3c2=O)cc1 [CRL8518, 3-[5,8-Dimethoxy-3-(4-methoxyphenyl)-4-oxo-1,4-dihydro-1-quinolinyl]propanenitrile]	–
154 to 155 °C	C=CCNc1cc(OC)cc2c1c(=O)c(-c1ccc(OC)cc1)cn2C [CRL8520, 5-Allylamino-7-methoxy-3-(4-methoxyphenyl)-1-methyl-1,4-dihydro-4-quinolinone]	–
144 to 145 °C	COc1ccc(CNc2cc(OC)cc3c2c(=O)c(-c2ccc(OC)cc2)cn3C)cc1 [CRL8521, 5-(4-Methoxybenzylamino)-7-methoxy-3-(4-methoxyphenyl)-1-methyl-1,4-dihydro-4-quinolinone]	–
206 to 207 °C	COc1ccc(-c2cn(CC#N)c3cc(OC)ccc3c2=O)cc1 [CRL8522, [7-Methoxy-3-(4-methoxyphenyl)-4-oxo-1,4-dihydro-1-quinolinyl]acetonitrile]	–
158 to 159 °C	CCN(CC)C(=O)CCn1cc(-c2ccc(OC)cc2)c(=O)c2ccc(OC)cc21 [CRL8525, N,N-Diethyl-3-[7-methoxy-3-(4-methoxyphenyl)-4-oxo-1,4-dihydro-1-quinolinyl]propanamide]	–

Continued, molecule first:

SMILES	melting point	also measured
COc1ccc(-c2cn(CCCC#N)c3cc(OC)ccc3c2=O)cc1 [CRL8470, 4-[7-Methoxy-3-(4-methoxyphenyl)-4-oxo-1,4-dihydro-1-quinolinyl]butanenitrile]	–	viability at 10 µM (T24; T24, 72 hours incubation, MTT, read-out: mean optical density, expressed as percentage relative to the mean optical density under the control condition (100%)): 101%; viability at 10 µM (J82; [2]): 85.6%; viability at 10 µM (HCT-15; HCT-16, 10^−5 M, 72 hours incubation, MTT, read-out: mean optical density, expressed as percentage relative to the mean optical density under the control condition (100%)): 95.5%; viability at 10 µM (U-373MG; U-373MG, 72 hours incubation, MTT, read-out: mean optical density, expressed as percentage relative to the mean optical density under the control condition (100%)): 104%; viability at 10 µM (U-87MG; U-87MG, 72 hours incubation, MTT, read-out: mean optical density, expressed as percentage relative to the mean optical density under the control condition (100%)): 97.2%; viability at 10 µM (A549; [2]): 80.2%; viability at 10 µM (A-427; [2]): 103%; viability at 10 µM (PC-3; [2]): 94%; viability at 10 µM (MCF7; [2]): 92.8%; viability at 10 µM (T-47D; T-47D, 72 hours incubation, MTT, read-out: mean optical density, expressed as percentage relative to the mean optical density under the control condition (100%)): 88.8%; viability at 10 µM (LoVo; [2]): 86.6%; MTD at 14 day [1]: > 160 mg/kg; viability at 10 µM (SW1088; [2]): 92.5%
COc1ccc2[nH]cc(-c3ccccc3)c(=O)c2c1 [CRL8488, 6-Methoxy-3-phenyl-1,4-dihydro-4-quinolinone]	355 to 356 °C	–
COc1cc(OC)c2c(=O)c(-c3ccccc3)cn(C)c2c1 [CRL8489, 5,7-Dimethoxy-3-phenyl-1-methyl-1,4-dihydro-4-quinolinone]	179 to 180 °C	–
C=CCOc1c(-c2ccc(OC)cc2)cnc2cc(OC)cc(OC)c12 [CRL8496, 4-(Allyloxy)-5,7-dimethoxy-3-(4-methoxyphenyl)-quinoline]	169 to 170 °C	–
COc1ccc(-c2cnc3cc(OC)cc(OC)c3c2OCCC2OCCO2)cc1 [CRL8500, 4-[2-(1,3-Dioxolan-2-yl)ethoxy]-5,7-dimethoxy-3-(4-methoxyphenyl)quinoline]	141 to 142 °C	–
COc1ccc(-c2cnc3c(OC)ccc(OC)c3c2OCCCC#N)cc1 [CRL8501, {[5,8-Dimethoxy-3-(4-methoxyphenyl)-4-quinolyl]oxy}butanenitrile]	117 to 118 °C	–
CCOC(=O)COc1c(-c2ccc(OC)cc2)cnc2cc(OC)cc(OC)c12 [CRL8502, Ethyl 2-{[5,7-dimethoxy-3-(4-methoxyphenyl)-4-quinolinyl]oxy}acetate]	238 to 239 °C	–
COc1ccc(-c2cn(C)c3c(OC)ccc(OS(=O)(=O)C(F)(F)F)c3c2=O)cc1 [CRL8511, 8-Methoxy-3-(4-methoxyphenyl)-1-methyl-5-trifluoro-methanesulfonate-1,4-dihydro-4-quinolinone]	179 to 180 °C	–
CC(=O)Oc1ccc(-c2cn(C)c3cc(OC(C)=O)cc(OC(C)=O)c3c2=O)cc1 [CRL8513, 5,7-Diacetoxy-3-[4-(acetoxy)phenyl]-1-methyl-1,4-dihydro-4-quinolmone]	219 to 220 °C	–
COc1ccc(-c2cnc3c(OC)ccc(OC)c3c2OCCO)cc1 [CRL8516, 2-{[5,8-Dimethoxy-3-(4-methoxyphenyl)-4-quinolyl]oxy}-1-ethanol]	124 to 125 °C	–
COc1ccc(-c2cn(CCOS(=O)(=O)c3ccc(C)cc3)c3c(OC)ccc(OC)c3c2=O)cc1 [CRL8517, 4-2-[5,8-Dimethoxy-3-(4-methoxyphenyl)-4-oxo-1,4-dihydro-1-quinolyl]ethyl p-Toluenesulfonate]	85 to 86 °C	–
COc1ccc(-c2cnc3c(OC)ccc(OC)c3c2OCCCCC#N)cc1 [CRL8519, {[5,8-Dimethoxy-3-(4-methoxyphenyl)-4-quinolyl]oxy}pentanenitrile]	126 to 127 °C	–
